Measured values taken from patent US20040136938A1, “Composition of vitamin c and/or vitamin a” (priority 2000, published 2004).

Key:
[1] = tested on: fibroblasts of human skin; experiment: Cellular proliferation of fibroblasts of human skin ([3H]-thymidine incorporation, 72 h); type: cell-based; conditions: for decrease in the cellular proliferation: retinol 20 μg/ml (69.72 μM) alone, vs. reference without retinol
Procedure: The Mixture of oligofucoses-1 as prepared in example 1 is tested in concentrations of 1 μg/ml and 10μg/ml, both alone and in the simultaneous presence of 375 μg/ml of sodium ascorbate and/or 20 μg/ml of retinol.
The fibroblasts of human skin used in this study come from the removal of skin from a person (28th passing). The cells were cultivated on 12-well plates, in a DMEM culture medium with 10% of fetal calf serum (SVF), 1% of antibiotics and of antifungus (PSF), and 1 μCi/ml of [^3H]-timidine (ICN) for 72 hours in the presence of the products to be tested at final concentrations of 1 μg/ml and 10 μg/ml.
After 72 hours of culture in stove (5% (v/v) CO2, 95% (v/v) air) at 37° C. in the presence of the tested products, the cells were washed four times with PBS, then the cellular carpet was detached for 0.05% of tripsin. Three ml of scintillation liquid were then added per sample, then the radioactivity incorporated in the cells is read in a computer with scintillation.
One incubated the cells with 20 μg/ml of retinol (69.72 μM). […] Two concentrations were tested: 1 μg/ml and 10 μg/ml.
One incubated the cells with 375 μg/ml of Na ascorbate (1.875 mM). […] Two concentrations were tested: 1 μg/ml and 10 μg/ml.
The cells were simultaneously incubated with 375 μg/ml of Na ascorbate and 20 μg/ml of retinol.

[2] = tested on: fibroblasts of mammaplasty; experiment: Collagen synthesis by fibroblasts (Sirius red coloration); type: cell-based, human
Procedure: The fibroblasts of mammaplasty of a person, in passage 14, were seeded on 12-well plates at the rate of 0.5.10^5 cells per well. The cells are placed in culture for 48 hours in the presence of a DMEM culture medium at 10% of fetal calf serum (SVF), in stove (5% (v/v) CO2, 95% (v/v) air) at 37° C.
After rinsing with PBS, they are treated and placed again in culture for 48 hours in the presence of products to be tested and of DMEM without SVF.
The method is based on a specific coloration of collagen by the Sirius red. The cells are directly fixed by the Bouin liquid (1 ml/well) for 1 hour, after exhaustive rinsing with PBS. The fixer is then aspirated and the plates are rinsed with running water by immersion for 15 minutes.
The coloration is carried out under stirring for 1 hour (1 ml/well) and the plates are then rinsed with hydrochloric acid 0.01 N. Then the material is dissolved in 200 μl of sodium hydroxide 0.1N before transferring to the microtiter plates (Nunc). The optical density is measured at 550 nm against sodium hydroxide as a blank.
The counting of the cells is carried out in 4 wells of each plate, and one detaches the cells with tripsin at 0.05%.
One studied the effect of fucose and of the Mixture of oligofucoses-1 (at 10 μg/ml each) in the presence or absence of sodium ascorbate at 500 μg/ml. And then in the presence or absence of retinol (10 μg/ml).

[3] = tested on: cells; conditions: cited from earlier work

For `O=C1O[C@H]([C@@H](O)CO)C([O-])=C1O.[Na+]` [Na ascorbate, sodium ascorbate], the “% vs. control (proliferation)” value ([1]; Na ascorbate 375 μg/ml alone) was −64.4% and the “effect on synthesis of collagen” value ([2]; sodium ascorbate 500 μg/ml alone, with respect to the effect of 50 μg/ml) was “activates the synthesis of collagen very little”.
In the case of `CC1=C(/C=C/C(C)=C/C=C/C(C)=C/CO)C(C)(C)CCC1` [Retinol, retinol], the “decrease in the cellular proliferation” value [1] was “about 45%”, the “decrease in the cellular proliferation” value ([1]; listed as retinol) was 42.5% and the “% vs. control (proliferation)” value ([1]; retinol 20 μg/ml alone) was −42.5%. For the same compound, the “effect on synthesis of collagen” value ([2]; retinol alone (10 μg/ml)) was “inhibiting effect on the synthesis of collagen”.
In the case of `O=C1O[C@H]([C@@H](O)CO)C(O)=C1O` [ascorbate], the “concentration at which cytotoxic effect can be observed” value ([3]; cell detachment, slowed proliferation, cellular death) is listed as “about 2.5 mM”.
In the case of `O=C1O[C@H]([C@@H](O)CO)C(O)=C1O` [ascorbic acid], the “concentration from which cytotoxic effect starts” value [3] is given as “about 0.01 % by weight”.
In the case of `C[C@H](O)[C@@H](O)[C@@H](O)[C@H](O)C=O` [fucose], the “effect on synthesis of collagen in the presence of retinol” value ([2]; 10 μg/ml with retinol 10 μg/ml, 48 h) was “this inhibition is greatly abolished”, the “effect on biosynthesis of collagen in the presence of sodium ascorbate” value ([2]; 10 μg/ml with sodium ascorbate 500 μg/ml, 48 h) was “stimulation of the biosynthesis of collagen” and the “decrease in the amount of collagen synthesized by the fibroblasts” value ([2]; fucose alone, 48 h, DMEM without SVF) was “about 19%”.
